Assay results as given in ChEMBL document CHEMBL1201862, “PubChem BioAssay data set” (2004).
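Following 48 hours of exposure in 96-well plates, responses at five concentrations were used to interpolate endpoints linearly. GI50 = concentration required for 50% inhibition of growth.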 Active and inactive are the calls of the source. Rule as the data show it: active = GI50 up to about 1.1 µM and inactive = higher.

Key:
Experiment in all cases: NCI anticancer screen, dose series, 48 h
SK-MEL-28 = system: SK-MEL-28
SF-295 = system: SF-295
SF-539 = system: SF-539
EKVX = system: EKVX
OVCAR-5 = system: OVCAR-5
LOX IMVI = system: LOX IMVI
HL-60 = system: HL-60
SK-MEL-2 = system: SK-MEL-2
SNB-19 = system: SNB-19
K562 = system: K562
UACC-257 = system: UACC-257
A498 = system: A498
SNB-75 = system: SNB-75
SR = system: SR
ACHN = system: ACHN
Malme-3M = system: Malme-3M
786-0 = system: 786-0
OVCAR-4 = system: OVCAR-4
UO-31 = system: UO-31
NCI-H226 = system: NCI-H226

Row | SMILES | GI50 (SK-MEL-28) | GI50 (SF-295) | GI50 (SF-539) | GI50 (EKVX) | GI50 (OVCAR-5) | GI50 (LOX IMVI) | GI50 (HL-60) | GI50 (SK-MEL-2) | GI50 (SNB-19) | GI50 (K562) | GI50 (UACC-257) | GI50 (A498) | GI50 (SNB-75) | GI50 (SR) | GI50 (ACHN) | GI50 (Malme-3M) | GI50 (786-0) | GI50 (OVCAR-4) | GI50 (UO-31) | GI50 (NCI-H226)
1 | CCN(CC)CC[n+]1ccc2c(C)c3[nH]c4ccccc4c3c(C)c2c1 | 0.533 µM (active) | 0.789 µM (active) | 0.612 µM (active) | 1.02 µM (active) | 1.61 µM (inactive) | 0.689 µM (active) | 0.168 µM (active) | 0.428 µM (active) | 0.144 µM (active) | 0.214 µM (active) | 0.713 µM (active) | 3.04 µM (inactive) | 0.276 µM (active) | 0.608 µM (active) | 5 µM (inactive) | 0.662 µM (active) | 0.56 µM (active) |  |  | 
2 | COC(=O)C1=C(C(=O)OC)C2(/N=C(\Nc3ccccc3)c3ccccc3)N(c3ccc(OC)cc3)CC(c3ccccc3)N2O1 (stereo unspecified) | > 100 µM (inactive) | > 100 µM (inactive) | > 100 µM (inactive) | > 100 µM (inactive) | > 100 µM (inactive) | > 100 µM (inactive) | > 100 µM (inactive) | > 100 µM (inactive) | > 100 µM (inactive) | > 100 µM (inactive) | > 100 µM (inactive) | > 100 µM (inactive) | 32.3 µM (inactive) | > 100 µM (inactive) | > 100 µM (inactive) | > 100 µM (inactive) | > 100 µM (inactive) | > 100 µM (inactive) | > 100 µM (inactive) | 
3 | CCOC(=O)c1c(N2CCCC2)[nH]c(=O)c(C(c2c(O)c(C(=O)OCC)c(N3CCCC3)[nH]c2=O)C(C)C)c1O | > 100 µM (inactive) | > 100 µM (inactive) | > 100 µM (inactive) | > 100 µM (inactive) | 33.2 µM (inactive) | > 100 µM (inactive) |  |  | 70.6 µM (inactive) | > 100 µM (inactive) | > 100 µM (inactive) | > 100 µM (inactive) | 25.3 µM (inactive) | 37.5 µM (inactive) | > 100 µM (inactive) | > 100 µM (inactive) | 61.8 µM (inactive) | > 100 µM (inactive) | > 100 µM (inactive) | > 100 µM (inactive)
4 | CC1(C)CC(=O)c2[nH]c3ccccc3c2CC(=O)NCCc2cn1cn2 | > 100 µM (inactive) | 82.8 µM (inactive) | > 100 µM (inactive) | > 100 µM (inactive) | > 100 µM (inactive) | > 100 µM (inactive) |  | > 100 µM (inactive) | 28 µM (inactive) | > 100 µM (inactive) | > 100 µM (inactive) | > 100 µM (inactive) | > 100 µM (inactive) | > 100 µM (inactive) | 61.1 µM (inactive) | > 100 µM (inactive) | 18.6 µM (inactive) | > 100 µM (inactive) | > 100 µM (inactive) | > 100 µM (inactive)
5 | Cc1cn(CCCCC2=NCCCN2)c(=O)[nH]c1=O | > 26.2 µM (inactive) | 46.5 µM (inactive) |  | > 29.9 µM (inactive) | > 30.3 µM (inactive) | > 25.6 µM (inactive) |  | > 26.9 µM (inactive) | > 52.8 µM (inactive) | > 24.6 µM (inactive) | > 26.2 µM (inactive) | > 31.8 µM (inactive) |  | > 28.9 µM (inactive) | > 25.2 µM (inactive) |  | > 23.9 µM (inactive) | > 29.5 µM (inactive) | > 24.8 µM (inactive) | > 57.7 µM (inactive)
6 | O=C1N[C@H]2c3c(Cl)sc(Cl)c3/C(=N/O)[C@H]2O1 | > 100 µM (inactive) |  | 88.1 µM (inactive) | > 100 µM (inactive) | > 100 µM (inactive) |  | 18.7 µM (inactive) | > 100 µM (inactive) | > 100 µM (inactive) | 75.3 µM (inactive) | > 100 µM (inactive) | > 100 µM (inactive) | > 100 µM (inactive) | > 100 µM (inactive) | > 100 µM (inactive) | > 100 µM (inactive) | > 100 µM (inactive) |  | > 100 µM (inactive) | 
7 | CCN(CC)C1Oc2cc3c(cc2C(c2ccc(OC)cc2)C1C)OCO3 (stereo unspecified) | 20.4 µM (inactive) | 21.7 µM (inactive) | 20.2 µM (inactive) | 18.3 µM (inactive) | 26.2 µM (inactive) | 16.1 µM (inactive) |  | 17.6 µM (inactive) | 26.9 µM (inactive) | 19.1 µM (inactive) | 15.9 µM (inactive) | 19.7 µM (inactive) | 20.3 µM (inactive) | 12.5 µM (inactive) | 22.5 µM (inactive) | 18.3 µM (inactive) | 21.7 µM (inactive) |  | 19.7 µM (inactive) | 23 µM (inactive)
8 | O=C(/C=C/c1ccc(O)c(O)c1)OCCOC(=O)/C=C/c1ccc(O)c(O)c1 | 36.4 µM (inactive) | 21.5 µM (inactive) | 22.4 µM (inactive) | 26.7 µM (inactive) | 14.2 µM (inactive) | 28.6 µM (inactive) |  | 22.1 µM (inactive) | 40.3 µM (inactive) | 24.8 µM (inactive) | 17.9 µM (inactive) | 39.5 µM (inactive) |  | 22.6 µM (inactive) | 31.3 µM (inactive) | 42.1 µM (inactive) | 42.3 µM (inactive) | 39.1 µM (inactive) | 23.2 µM (inactive) | 30.1 µM (inactive)
